Laboratory results as given in ChEMBL document CHEMBL1137781, “Synthesis and preclinical evaluation of novel PET probes for P-glycoprotein function and expression” (J Med Chem, 2009).

Assays:
Caco-2 = assay: Ratio of permeability from basolateral to apical side over apical to basolateral side in human Caco-2 cells; format: ADME, cell-based
NCI/ADR-RES [1] = assay: Inhibition of Pgp in human MCF7/ADR cells assessed as increase in doxorubicin accumulation at 20 uM relative to untreated control; format: cell-based
NCI/ADR-RES [2] = assay: Inhibition of Pgp in human MCF7/ADR cells assessed as potentiation of doxorubicin-induced cytotoxicity at 20 uM relative to untreated control; format: cell-based; design: Activity: scale not given: the % may be the effect or the level left

## COc1cc2c(cc1OC)CN(CCCC1CCCc3c(OC)cccc31)CC2 (stereo not drawn)
Caco-2
  Ratio: 18
NCI/ADR-RES [1]
  fold change (FC): 4.8
NCI/ADR-RES [2]
  Activity: 85%
